Measurements: patent US11147803B2, “Dementia therapeutic agent combining pyrazoloquinoline derivative and memantine” (Eisai R&D Management Co., Ltd., priority 2017, dated 2021)

System: rats with scopolamine-induced cognitive impairment
Assay: Novel object recognition test using rats with scopolamine-induced cognitive impairment
Assay type: in vivo, rat (Long Evans)
Conditions: for percentage of exploration of the novel object in T2: scopolamine 0.7 mg/kg s.c., mean±standard error
Source text: [Test Example 1] Novel Object Recognition Test Using Rats with Scopolamine-Induced Cognitive Impairment
Acetylcholine nervous system disorder has been reported in Alzheimer's disease (Whitehouse et al., Science, 1982, vol. 215, p. 1237), and scopolamine-administered animals are utilizable as an animal model for Alzheimer's disease. Scopolamine is a muscarine receptor inhibitor which blocks acetylcholine nervous system transmission.
6-week-old male Long Evans rats (Institute for Animal Reproduction) were subjected to the test. A habituation process to the experimental procedure was carried out once per day for 2 days prior to the test. In the habituation process, a vehicle was administered to the rats, and then the rats were placed in an empty test apparatus (40 cm×30 cm×45 cm height) and allowed to explore for 3 minutes, and after then placed in a waiting chamber (13 cm×30 cm×45 cm height) for about 1 minute, they were returned to the empty test apparatus again and left for 5 minutes.
An acquisition trial (T1) was carried out on the day of the test. Compound (I) was orally administered 2 hours before T1. Memantine hydrochloride was orally administered 1 hour before T1. Scopolamine (Wako Pure Chemical Industries, Ltd.) was subcutaneously administered 30 minutes before T1 at a dose of 0.7 mg/kg. In T1, the rats were habituated to the empty test apparatus for 3 minutes and then placed in the waiting chamber. After setting two identical objects in the test apparatus, the rats were returned into the test apparatus again and allowed to freely explore the two identical objects for 5 minutes. The rats were then returned into their rearing cages. After 2 hours, a retention trial (T2) was carried out. The rats were placed in the empty test apparatus for 3 minutes for habituation, and were then transferred into the waiting chamber. After setting an object used in T1 (“familiar” object) and an object not used in T1 (“novel” object) in the test apparatus, the rats were again returned into the test apparatus and allowed to freely explore these objects for 3 minutes. The objects were wiped with a wet wipe impregnated with ethanol after each experiment so as to leave no trace of odor. The behaviors of the rats during T1 and T2 were recorded by a digital video camera, and the total exploration time for each object was manually measured using a stopwatch. Exploratory behavior was defined as the behavior in which the rat brings its nose within 2 cm of the object and directs its nose toward the object.
In the novel object recognition test, the percentage of exploration of the novel object in T2 is considered to be an index for amnesia, reflecting discrimination between the familiar object and the novel object. The percentage of exploration of the novel object was calculated by the following formula. The percentage of exploration of the novel object (%)=N/(N+F)×100 F: time spent in exploring the familiar object N: time spent in exploring the novel object
Rats whose total time spent in exploring the objects during T1 or T2 was 10 seconds or less or rats whose percentage of the time spent in exploring either of the objects during T1 was not less than 70% or not more than 30% of the total exploration time were excluded from the data analysis.
The results were expressed as mean±standard error. The difference between the normal control group untreated with scopolamine and the disease control group treated with scopolamine was analyzed by an unpaired t-test (significant difference: *). The difference between the disease control group and the single drug-treated group was analyzed by Dunnett-type multiple comparison test (significant difference: #). The difference between the combined treatment group and the single drug-treated group was analyzed by an unpaired t-test (significant difference: ※). A value of p<0.05 was judged to be a statistically significant difference. Statistical analysis was conducted using GraphPad Prism version 5.04 or 6.02.

Row | SMILES | percentage of exploration of the novel object in T2 (Compound (I) 0.3 mg/kg orally 2 hours before T1) [%] | percentage of exploration of the novel object in T2 (Compound (I) 1 mg/kg orally 2 hours before T1) [%] | percentage of exploration of the novel object in T2 (Compound (I) 3.3 mg/kg orally 2 hours before T1, # significant vs disease control) | percentage of exploration of the novel object in T2 (Compound (I) 10 mg/kg orally 2 hours before T1, # significant vs disease control) | ameliorative effect on the percentage of exploration of the novel object (significance vs disease control) (compound (I) 1 mg/kg (Table 1)) | ameliorative effect on the percentage of exploration of the novel object (significance vs disease control) (compound (I) 3.3 mg/kg (Table 2)) | percentage of exploration of the novel object in T2 (Memantine 1 mg/kg orally 1 hour before T1) [%] | percentage of exploration of the novel object in T2 (Memantine 3 mg/kg orally 1 hour before T1, # significant vs disease control) | percentage of exploration of the novel object in T2 (Memantine 10 mg/kg orally 1 hour before T1) [%] | ameliorative effect on the percentage of exploration of the novel object (significance vs disease control) (memantine hydrochloride 1 mg/kg alone (Table 4)) | ameliorative effect on the percentage of exploration of the novel object (significance vs disease control) (memantine hydrochloride 3 mg/kg (Table 3))
1 | COc1ncc(C)c(-c2ccc3c(c2)[nH]c(=O)c2cnn([C@H]4CCOC4)c23)c1C [Compound (I), (S)-7-(2-methoxy-3,5-dimethylpyridin-4-yl)-1-(tetrahydrofuran-3-yl)-1H-pyrazolo[4,3-c]quinoline-4(5H)-one] | 58.7 ± 3.2 | 59.9 ± 3.4 | 68.5 ± 2.0# % | 68.5 ± 1.6# % | did not exhibit a significant effect | significant ameliorative effect |  |  |  |  | 
2 | CC12CC3CC(C)(C1)CC(N)(C3)C2 [Memantine, memantine] |  |  |  |  |  |  | 58.1 ± 2.4 | 68.9 ± 4.0# % | 59.9 ± 3.8 | no significant ameliorative effect | significant ameliorative effect
